Source: patent US5635593A (priority 1995, dated 1997)
Square brackets hold non-standard residues; d marks the D form. Peptide text beside a SMILES is read from it. Oic = O=C(O)[C@@H]1C[C@@H]2CCCC[C@@H]2N1; Hyp = O=C(O)[C@@H]1C[C@@H](O)CN1; dTic = O=C(O)[C@H]1Cc2ccccc2CN1; 2Thi = N[C@@H](Cc1cccs1)C(=O)O

Columns and labels:
[1] = biological target: T1, BK1 receptor (Oryctolagus cuniculus, UniProt P48748); assay: rabbit aorta in vitro, reversal of des-Arg^9 -BK contraction; parameters: on rabbit aorta (BK1 -receptor) in vitro; from tissue; host or cells: rabbit aorta; conditions: negative log of molar concentration causing 50% reversal of des-Arg^9 -BK (10^-7 M) contraction
T1 sequence (P48748 1-352): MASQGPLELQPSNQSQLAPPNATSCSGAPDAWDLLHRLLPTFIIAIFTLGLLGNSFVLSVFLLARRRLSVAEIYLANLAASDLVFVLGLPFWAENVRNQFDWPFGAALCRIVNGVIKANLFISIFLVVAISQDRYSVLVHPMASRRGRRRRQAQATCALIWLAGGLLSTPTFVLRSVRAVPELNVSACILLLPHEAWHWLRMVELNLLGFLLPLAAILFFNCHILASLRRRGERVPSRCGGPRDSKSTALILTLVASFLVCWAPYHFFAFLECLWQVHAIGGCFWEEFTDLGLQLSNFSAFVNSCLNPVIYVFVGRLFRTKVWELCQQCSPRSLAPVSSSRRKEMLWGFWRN
Procedure: Each antagonist was then added, in a cumulative fashion, on top of the contraction and the negative log of the molar concentration of the antagonist causing a 50% reversal (IC50) of the […] measured.

[2] = biological target: T2, BK2 receptor (Oryctolagus cuniculus, UniProt Q28642); assay: blood pressure response to BK2 agonist in LPS-pretreated rabbits; format: in vivo, rabbit; parameters: key to observed antagonist activity BK2, 1 / observed antagonist activity BK2, 3 / observed antagonist activity BK2, 10: +: complete blockade of the blood pressure response to the appropriate agonist; ±: partial blockade; -: no observable effect at the dose indicated; conditions: rabbits given LPS (10 μg) 20 hours before; for observed antagonist activity BK2, 1: 1 μg kg^-1 min^-1; for observed antagonist activity BK2, 3: 3 μg kg^-1 min^-1; for observed antagonist activity BK2, 10: 10 μg kg^-1 min^-1
T2 construct: from tissue; host or cells: whole animal (rabbit, LPS-pretreated), blood pressure response
T2 sequence (Q28642 1-367): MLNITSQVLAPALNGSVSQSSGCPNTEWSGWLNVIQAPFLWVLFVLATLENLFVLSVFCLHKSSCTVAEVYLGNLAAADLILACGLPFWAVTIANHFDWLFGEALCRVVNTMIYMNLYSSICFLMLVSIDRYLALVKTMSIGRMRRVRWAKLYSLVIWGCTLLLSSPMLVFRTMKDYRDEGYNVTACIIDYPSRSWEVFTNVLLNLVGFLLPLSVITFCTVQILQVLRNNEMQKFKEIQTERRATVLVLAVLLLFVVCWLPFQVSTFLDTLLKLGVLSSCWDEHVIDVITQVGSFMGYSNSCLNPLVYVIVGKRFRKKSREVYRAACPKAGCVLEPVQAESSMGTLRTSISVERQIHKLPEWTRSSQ
Text: (§1) That heterodimeric constructs block the activities attributable to two different receptor populations simultaneously when administered to an intact animal has been known using a standard assay of BK2 and BK1 receptor activity (see, deBlois, Bouthillier, and Marceau, Brit. J. Pharm., 103, 1057-1066, 1991). In normal rabbits, no changes in systemic arterial blood pressure can be detected in response to challenges with BK1 receptor agonists. There is, however, a predictable and reproducible response to BK2 agonists constituatively present. After stimulation with LPS BK1 receptor activity will develop over time such that profound responses to doses of BK1 agonists that were previously inconsequential in nature are observed after a 3-4 hour period. Responses to BK2 agonists are unchanged in these animals. At this point, one can test directly the ability to block both BK1 and BK2 mediated reductions in systemic blood pressure simultaneously with a heterodimeric antagonist.
(§2) FIGS. 8a, b and c comprise actual blood pressure traces from a series of experiments designed to illustrate the ability of a representative heterodimer (CP-0364) to block both BK1 - and BK2 - mediated hypotensive responses simultaneously.
(§3) The expected antagonist activity is based on the data summarized in Tables K and L. The in vivo experimental data reported are qualitative measurements of antagonist activity at three different doses (1, 3 and 10 μg kg^-1 min^-1) in rabbits given a sub-lethal dose of LPS (10 μg), 20 hours before initiation of the experiment.

[3] = biological target: T1, BK1 receptor; assay: blood pressure response to BK1 agonist in LPS-pretreated rabbits; format: in vivo, rabbit; parameters: from tissue; host or cells: whole animal (rabbit, LPS-pretreated), blood pressure response; key to observed antagonist activity BK1, 1 / observed antagonist activity BK1, 3 / observed antagonist activity BK1, 10: +: complete blockade of the blood pressure response to the appropriate agonist; ±: partial blockade; -: no observable effect at the dose indicated; conditions: rabbits given LPS (10 μg) 20 hours before; for observed antagonist activity BK1, 1: 1 μg kg^-1 min^-1; for observed antagonist activity BK1, 3: 3 μg kg^-1 min^-1; for observed antagonist activity BK1, 10: 10 μg kg^-1 min^-1
Text: as §1, §2, §3

[4] = biological target: T3, BK2 -receptor (Rattus norvegicus, UniProt P25023); assay: rat uterus (RU) in vitro, antagonism of BK; conditions: against BK
T3 construct: guinea-pig ileum (GPI), rat uterus (RU) and rabbit jugular vein (RJV); from tissue; host or cells: rat uterus
T3 sequence (P25023 1-396): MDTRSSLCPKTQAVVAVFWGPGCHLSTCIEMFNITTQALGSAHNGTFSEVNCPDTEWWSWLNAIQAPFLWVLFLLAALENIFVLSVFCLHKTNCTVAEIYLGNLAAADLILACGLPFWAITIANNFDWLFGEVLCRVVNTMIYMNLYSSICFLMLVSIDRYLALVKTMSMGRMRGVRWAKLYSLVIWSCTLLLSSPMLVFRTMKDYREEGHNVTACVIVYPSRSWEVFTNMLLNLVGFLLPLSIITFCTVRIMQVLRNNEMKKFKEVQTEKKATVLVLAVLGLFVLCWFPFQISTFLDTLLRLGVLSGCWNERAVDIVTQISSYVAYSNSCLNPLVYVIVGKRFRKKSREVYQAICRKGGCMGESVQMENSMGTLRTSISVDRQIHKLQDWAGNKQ
Procedure: Thus, in vitro studies were performed on standard assay systems, namely, guinea-pig ileum (GPI), rat uterus (RU) and rabbit jugular vein (RJV). […] The potency of each compound was assessed as a pA2 value according to the method of Arunlakshana & Schild, Br. J. Pharmacol. Chemother., 14:48-58 (1959). The pA2 can be defined as the negative logarithm of the molar concentration of the antagonist in the presence of which the potency of the agonist is reduced two-fold, i.e., twice the amount of agonist is required to produce a given response in the presence of, than in the absence of, the antagonist. A high potency of antagonism is indicated by a high pA2 value. i.e., a low concentration of antagonist is effective.
The percentage recovery (% Rec) was also determined for compounds with respect to each assay.
With respect to duration of activity, it is noted that after exposure to the highest concentration of antagonist, each tissue was washed extensively and then assessed for recovery from the antagonist effect.
Potency in the rat uterus assay was assessed as described above and pA2 values determined.

Structure (SMILES): N=C(N)NCCC[C@@H](N)C(=O)N[C@@H](CCCNC(=N)N)C(=O)N1CCC[C@H]1C(=O)N1C[C@H](O)C[C@H]1C(=O)NCC(=O)N[C@@H](Cc1ccccc1)C(=O)N[C@@H](CO)C(=O)N1Cc2ccccc2C[C@@H]1C(=O)N1[C@H](C(=O)O)C[C@@H]2CCCC[C@@H]21 [CP-0267, D R--R--P--J--G--F--S--D Tic--Oic] (HELM PEPTIDE1{[dR].R.P.[Hyp].G.F.S.[O=C([C@H]1Cc2ccccc2CN1[*:1])[*:2]].[O=C(O)[C@@H]1C[C@@H]2CCCC[C@@H]2N1[*:1]]}$$$$V2.0; N-terminus and C-terminus assumed)
- BK1 rabbit aorta IC50 [1]: 7.5 ± 0.2
- observed antagonist activity BK2, 1 [2]: -
- observed antagonist activity BK2, 3 [2]: -
- observed antagonist activity BK1, 1 [3]: -
- observed antagonist activity BK1, 3 [3]: -
- observed antagonist activity BK1, 10 [3]: +
- pA2 rat uterus (BK2) [4]: 5.7 ± 0.1

Structure (SMILES): CC(C)C[C@H](NC(=O)[C@@H](Cc1ccccc1)NC(=O)[C@H](CSC1CC(=O)N(CCCCCCN2C(=O)CC(SC[C@H](NC(=O)[C@H](Cc3ccccc3)NC(=O)CNC(=O)[C@@H]3C[C@@H](O)CN3C(=O)[C@@H]3CCCN3C(=O)[C@H](CCCNC(=N)N)NC(=O)[C@H](N)CCCNC(=N)N)C(=O)N[C@H](Cc3ccccc3)C(=O)N[C@@H](CC(C)C)C(=O)N[C@@H](CCCNC(=N)N)C(=O)O)C2=O)C1=O)NC(=O)[C@H](Cc1ccccc1)NC(=O)CNC(=O)[C@@H]1C[C@@H](O)CN1C(=O)[C@@H]1CCCN1C(=O)[C@H](CCCNC(=N)N)NC(=O)[C@H](N)CCCNC(=N)N)C(=O)O (stereo partly shown) [CP-0273] (HELM PEPTIDE1{[dR].R.P.[Hyp].G.F.C.[dF].L.R}|PEPTIDE2{[dR].R.P.[Hyp].G.F.C.[dF].L}|CHEM1{[O=C1CC([*:1])C(=O)N1CCCCCCN1C(=O)CC([*:2])C1=O]}$PEPTIDE1,CHEM1,7:R3-1:R1|PEPTIDE2,CHEM1,7:R3-1:R2$$$V2.0; N-terminus and C-terminus assumed)
- IC50 [1]: 2000 nM
- Kb ([4]; read-out: pA2 rat uterus (BK2) (converted)): 6.31 nM

Structure (SMILES): N=C(N)NCCC[C@@H](N)C(=O)N[C@@H](CCCNC(=N)N)C(=O)N1CCC[C@H]1C(=O)N1C[C@H](O)C[C@H]1C(=O)NCC(=O)N[C@@H](Cc1cccs1)C(=O)N[C@@H](CO)C(=O)N1Cc2ccccc2C[C@@H]1C(=O)N1[C@H](C(=O)O)C[C@@H]2CCCC[C@@H]21 [CP-0345, D R--R--P--J--G--Thi--S--D Tic--Oic] (H-[dR]RP[Hyp]G[2Thi]S[dTic][Oic]-OH; N-terminus and C-terminus assumed)
- BK1 rabbit aorta IC50 [1]: 7.1 ± 0.1
- observed antagonist activity BK2, 1 [2]: -
- observed antagonist activity BK2, 10 [2]: +
- observed antagonist activity BK1, 1 [3]: -
- observed antagonist activity BK1, 3 [3]: +
- observed antagonist activity BK1, 10 [3]: +
- pA2 rat uterus (BK2) [4]: 7.6 ± 0.4

Structure (SMILES): CC(C)C[C@H](NC(=O)[C@@H]1CCCN1C(=O)[C@H](CO)NC(=O)[C@H](Cc1ccccc1)NC(=O)CNC(=O)[C@@H]1C[C@@H](O)CN1C(=O)[C@@H]1CCCN1C(=O)[C@H](CS)NC(=O)[C@@H](N)CCCCN)C(=O)O [CP-0374, K--C--P--J--G--F--S--P--L] (HELM PEPTIDE1{K.C.P.[Hyp].G.F.S.P.L}$$$$V2.0; N-terminus and C-terminus assumed)
- BK1 rabbit aorta IC50 [1]: 6.5 ± 0.3
- pA2 rat uterus (BK2) [4]: no measurable activity

Structure (SMILES): CC(C)C[C@H](NC(=O)[C@@H](Cc1ccccc1)NC(=O)[C@H](CO)NC(=O)[C@H](Cc1ccccc1)NC(=O)CNC(=O)[C@@H]1C[C@@H](O)CN1C(=O)[C@@H]1CCCN1C(=O)[C@H](CSC1CC(=O)N(CCCCCCN2C(=O)CC(SC[C@H](NC(=O)[C@H](Cc3ccccc3)NC(=O)CNC(=O)[C@@H]3C[C@@H](O)CN3C(=O)[C@@H]3CCCN3C(=O)[C@H](CCCNC(=N)N)NC(=O)[C@H](N)CCCNC(=N)N)C(=O)N[C@H](Cc3ccccc3)C(=O)N[C@@H](CC(C)C)C(=O)N[C@@H](CCCNC(=N)N)C(=O)O)C2=O)C1=O)NC(=O)[C@H](N)CCCNC(=N)N)C(=O)O (stereo partly shown) [CP-0386] (HELM PEPTIDE1{[dR].R.P.[Hyp].G.F.C.[dF].L.R}|PEPTIDE2{[dR].C.P.[Hyp].G.F.S.[dF].L}|CHEM1{[O=C1CC([*:1])C(=O)N1CCCCCCN1C(=O)CC([*:2])C1=O]}$PEPTIDE1,CHEM1,7:R3-1:R1|PEPTIDE2,CHEM1,2:R3-1:R2$$$V2.0; N-terminus and C-terminus assumed)
- BK1 rabbit aorta IC50 [1]: 7.1 ± 0.2
- observed antagonist activity BK2, 1 [2]: +
- observed antagonist activity BK2, 3 [2]: +
- observed antagonist activity BK2, 10 [2]: +
- observed antagonist activity BK1, 1 [3]: +
- observed antagonist activity BK1, 3 [3]: +
- observed antagonist activity BK1, 10 [3]: +
- pA2 rat uterus (BK2) [4]: 7.6 ± 0.1

Structure (SMILES): CC(C)C[C@H](NC(=O)[C@@H]1CCCN1C(=O)[C@H](CO)NC(=O)[C@H](Cc1ccccc1)NC(=O)CNC(=O)[C@@H]1C[C@@H](O)CN1C(=O)[C@@H]1CCCN1C(=O)[C@H](CCCCNC(=O)CCCCCN1C(=O)CC(SC[C@H](NC(=O)[C@H](Cc2ccccc2)NC(=O)CNC(=O)[C@@H]2C[C@@H](O)CN2C(=O)[C@@H]2CCCN2C(=O)[C@H](CCCNC(=N)N)NC(=O)[C@H](N)CCCNC(=N)N)C(=O)N[C@H](Cc2ccccc2)C(=O)N[C@@H](CC(C)C)C(=O)N[C@@H](CCCNC(=N)N)C(=O)O)C1=O)NC(=O)[C@H](N)CCCNC(=N)N)C(=O)O (stereo partly shown) [CP-0389] (HELM PEPTIDE1{[dR].R.P.[Hyp].G.F.C.[dF].L.R}|PEPTIDE2{[dR].K.P.[Hyp].G.F.S.P.L}|CHEM1{[O=C1CC([*:1])C(=O)N1CCCCCC(=O)[*:2]]}$PEPTIDE1,CHEM1,7:R3-1:R1|PEPTIDE2,CHEM1,2:R3-1:R2$$$V2.0; N-terminus and C-terminus assumed; bridges inferred)
- BK1 rabbit aorta IC50 [1]: 6.5 ± 0.1
- pA2 rat uterus (BK2) [4]: 7.4 ± 0.1
